Assay results reported in patent publication US20250228953A1, “INTRACELLULAR TARGETING OF OLIGONUCLEOTIDES” (Entrada Therapeutics, Inc., priority 2021, published 2025).

Key:
[1] = amino acid hydrophobicity scale; cited from earlier work
[2] = as reported by Tien, cited from earlier work; for SASA, Empirical / SASA, Theoretical: et al.
eGFP-654 transgene = assay: eGFP protein restoration in liver by ELISA; format: in vivo, mouse; details: 1 week
Procedure: Experiments were performed to determine if GalNAc conjugation to PMO or PMO-EEV could improve liver efficacy of PMO or PMO-EEV in EGFP-654 mice (Sazani et al., Nat Biotechnol. 2002 December; 20(12):1228-33. doi: 10.1038/nbt759.) in a single dosing schedule. Mice (EGFP-654, n=3/group; one female and two male) were injected intravenously (IV) with saline as control and 20 mpk of PMO1 and PMO1-EEV1; 0.2, 2, and 20 mpk (all normalized based on PMO dose) GalNAc-PMO2 and GalNAc-PMO2-EEV1 via both intravenous (TV) and subcutaneous (SC) route of administration. Both the PMO1 and the PMO2 have the same sequence and can be conjugated to EEV at the 3′ end, however, they have different functional handles at 5′ end. […] Thus, PMO1 is used as a control to when exploring the GalNAc liver targeting effects of the PMO2 GalNAc conjugates. An overview of the study design is illustrated in FIG. 16.
eGFP-654 transgenic mouse. The eGFP-654 transgenic mouse line was generated previously for evaluating splice switching oligonucleotides (Sazani et al. 2002 Nat Biotech; JAX stock #027617). The eGFP-654 transgene was cloned under a hybrid promoter with a cytomegalovirus early enhancer element, chicken beta-actin, and rabbit beta-globin, yielding widespread expression throughout the body. […]
eGFP relative protein analysis by […] (ELISA). […] Concentration was measured using a bicinchoninic acid (BCA) assay according to the manufacturer's protocol (Pierce BCA Protein Assay Kit 23227), diluting with the lysis buffer as needed. […] Sample eGFP levels were analyzed using enzyme-linked immunosorbent assay (ELISA) analysis with Abcam GFP ELISA kit (ab171581) according to the manufacturer's protocol. Sample eGFP levels were interpolated using the standard curve with the ELISA kit and reported as mass of eGFP detected (as measured by ELISA) per mass of protein content in the tissue lysate (as measured by BCA assay). the pg/mL of protein detected in each sample divided by the total protein concentration of lysates in ug/ml. […]

Row | Compound | Hydrophobicity, Eisenberg and Weiss [1] | Hydrophobicity, Engleman et al. [1] | Hydrophobicity, Janin [1] | Hydrophobicity, Kyrie and Doolittle [1] | SASA, Empirical [2] | SASA, Theoretical [2] | SASA, Miller et al. (1987) [2] | SASA, Rose et al. (1985) [2] | eGFP protein restoration, different EEVs / GalNAc ligands conjugated to GalNAc-PMO2 constructs (eGFP-654 transgene; liver, 20 mpk PMO equivalent IV) | fold enhancement of efficacy compared to PMO1 (eGFP-654 transgene; liver eGFP, 20 mpk IV) | fold enhancement of efficacy compared to PMO1-EEV1 (eGFP-654 transgene; liver eGFP, 20 mpk IV)
1 | C[C@H](N)C(=O)O [Ala, Alanine] | 0.25 | 1.6 | 0.3 | 1.8 | 121.0 Å^2 | 129.0 Å^2 | 113.0 Å^2 | 118.1 Å^2 | – | – | –
2 | N=C(N)NCCC[C@H](N)C(=O)O [Arg, Arginine] | −1.80 | −12.3 | −1.4 | −4.5 | – | – | – | – | – | – | –
3 | N=C(N)NCCC[C@H](N)C(=O)O [Arginine, arginine] | – | – | – | – | 265.0 Å^2 | 274.0 Å^2 | 241.0 Å^2 | 256.0 Å^2 | – | – | –
4 | NC(=O)C[C@H](N)C(=O)O [Asn, Asparagine] | −0.64 | −4.8 | −0.5 | −3.5 | 187.0 Å^2 | 195.0 Å^2 | 158.0 Å^2 | 165.5 Å^2 | – | – | –
5 | N[C@@H](CC(=O)O)C(=O)O [Asp, Aspartic acid] | −0.72 | −9.2 | −0.6 | −3.5 | 187.0 Å^2 | 193.0 Å^2 | 151.0 Å^2 | 158.7 Å^2 | – | – | –
6 | N[C@@H](CS)C(=O)O [Cys, Cysteine] | 0.04 | 2.0 | 0.9 | 2.5 | 148.0 Å^2 | 167.0 Å^2 | 140.0 Å^2 | 146.1 Å^2 | – | – | –
7 | N[C@@H](CCC(=O)O)C(=O)O [Glu, Glutamic acid] | −0.62 | −8.2 | −0.7 | −3.5 | 214.0 Å^2 | – | 183.0 Å^2 | 186.2 Å^2 | – | – | –
8 | NCC(=O)O [Gly, Glycine] | – | – | – | – | 97.0 Å^2 | 104.0 Å^2 | 85.0 Å^2 | 88.1 Å^2 | – | – | –
9 | N[C@@H](Cc1c[nH]cn1)C(=O)O [His, Histidine] | −0.40 | −3.0 | −0.1 | −3.2 | 216.0 Å^2 | 224.0 Å^2 | 194.0 Å^2 | 202.5 Å^2 | – | – | –
10 | CC[C@H](C)[C@H](N)C(=O)O [Ile, Isoleucine] | 0.73 | 3.1 | 0.7 | 4.5 | 195.0 Å^2 | 197.0 Å^2 | 182.0 Å^2 | 181.0 Å^2 | – | – | –
11 | NCCCC[C@H](N)C(=O)O [Lys, Lysine] | −1.10 | −8.8 | −1.8 | −3.9 | 230.0 Å^2 | 236.0 Å^2 | 211.0 Å^2 | 225.8 Å^2 | – | – | –
12 | CSCC[C@H](N)C(=O)O [Met, Methionine] | 0.26 | 3.4 | 0.4 | 1.9 | 203.0 Å^2 | 224.0 Å^2 | 204.0 Å^2 | 203.4 Å^2 | – | – | –
13 | N[C@@H](Cc1ccccc1)C(=O)O [Phe, Phenylalanine] | 0.61 | 3.7 | 0.5 | 2.8 | 228.0 Å^2 | 240.0 Å^2 | 218.0 Å^2 | 222.8 Å^2 | – | – | –
14 | O=C(O)[C@@H]1CCCN1 [Pro, Proline] | – | – | – | – | 154.0 Å^2 | – | 143.0 Å^2 | 146.8 Å^2 | – | – | –
15 | N[C@@H](CO)C(=O)O [Ser, Serine] | −0.26 | 0.6 | −0.1 | −0.8 | 143.0 Å^2 | 155.0 Å^2 | 122.0 Å^2 | 129.8 Å^2 | – | – | –
16 | C[C@@H](O)[C@H](N)C(=O)O [Thr, Threonine] | −0.18 | 1.2 | −0.2 | −0.7 | 163.0 Å^2 | 172.0 Å^2 | 146.0 Å^2 | 152.5 Å^2 | – | – | –
17 | N[C@@H](Cc1c[nH]c2ccccc12)C(=O)O [Trp, Tryptophan] | 0.37 | 1.9 | 0.3 | −0.9 | 264.0 Å^2 | 285.0 Å^2 | 259.0 Å^2 | 266.3 Å^2 | – | – | –
18 | N[C@@H](Cc1ccc(O)cc1)C(=O)O [Tyr, Tyrosine] | 0.02 | −0.7 | −0.4 | −1.3 | 255.0 Å^2 | 263.0 Å^2 | 229.0 Å^2 | 236.8 Å^2 | – | – | –
19 | CC(C)[C@H](N)C(=O)O [Val, Valine] | 0.54 | 2.6 | 0.6 | 4.2 | 165.0 Å^2 | 174.0 Å^2 | 160.0 Å^2 | 164.5 Å^2 | – | – | –
20 | Cyclo(FGFRRRRQ)-PEG12-OH (cyclo(FGFRRRRQ); also: PEG12-OH attached, position not clear) [EEV6] | – | – | – | – | – | – | – | – | highest eGFP protein restoration | – | –
21 | PMO3-GalNAc-EEV1: "EEV1 was reacted with compound PMO1-Lys(BCN) with the following sequence (5′-GCT ATT ACC TTA ACC CAG-3′)"; "GalNAc-N3 was then reacted with PMO1-Lys(BCN)-EEV1" (DNA GCTATTACCTTAACCCAG; all phosphorodiamidate morpholino (PMO); PMO with Lys(BCN) linker bearing GalNAc and EEV1 cell-penetrating peptide) | – | – | – | – | – | – | – | – | – | 14 fold | 8.9 fold
